Columns and labels:
[1] = test system: VEGF mRNA in MCF7 cells; assay: Real-time quantitative RT-PCR of VEGF mRNA in MCF7 cells; format: cell-based, human; conditions: hypoxic MCF7 cells, 200 nM and 600 nM
Description: We used real-time quantitative RT-PCR assays to determine the relative levels of VEGF mRNA in hypoxic cells treated with ETP compounds and control DKP compound. In parallel, cells treated with vehicle were used as controls. mRNA level of β-glucuronidase gene was used as a control in determining the relative levels of transcription.
MCF7 cells were maintained in RPMI-1640 media (Sigma) supplemented with 10% fetal bovine serum (Irvine Scientific). Cells were plated in 6-well dishes at a density of 2.4×10^5 cells/well using 2 mL of a 1.2×10^5 cell/mL suspension. […] After a 6 h incubation period at 37° C. in a humidified atmosphere with 5% CO2, hypoxia was induced by adding desferrioxamine mesylate (DFO, Sigma) to a final concentration of 300 μM and incubating cells for another 18 hours. Cells were washed twice with ice cold PBS and lysed immediately. Total RNA was isolated with RNeasy kit (Qiagen) according to the manufacturer's instructions and quantified by UV absorbance. The isolated RNA was further treated with DNase I (Ambion, DNAfree kit) to remove any remaining genomic DNA. Reverse transcription was performed with Powerscript II Reverse Transcriptase (Clontech) as recommended by the manufacturer.
Quantitative Reverse Transcript PCR (qRT-PCR) was employed to determine the effect of ETP compounds on VEGF and GLUT1 genes in HeLa cells both under normoxic and hypoxic conditions. For VEGF analysis, the forward primer 5′-AGGCCAGCACATAGGAGAGA-3′ and reverse primer 5′-TTTCCCTTTCCTCGAACTGA-3′ were used to amplify a 104-bp fragment from the 3′-translated region of the gene. For GLUT1 (SLC2A1) analysis we utilized the following sequences to yield a product of 179 bp: forward sequence 5′-TAGAAACATGGTTTTGAAATGC-3′, reverse sequence 5′-GGTAACAGGGATCAAACAGATT-3′. RNA levels were standardized by quantification of the β-glucuronidase as housekeeping gene. […] Data were analyzed with Applied Biosystems Sequence Detection System, version 1.2. […]

[2] = MTT cytotoxicity assay in MCF7 cells; format: cell-based; conditions: human, MCF7, 24 h treatment
Description: FIG. 10 MTT cytotoxicity assay for LS72 in MCF7 cells. Cells were maintained in RPMI-1640 media supplemented with 10% FBS. Cells were treated with different concentrations of LS72 for 24 hours and the amount of purple formazan formed was determined via spectrophotometry.
Based on this EC50 value of LS72 in MCF7 cells we chose to measure its effect on HIF inducible transcription at a maximum concentration of 400 nM in MCF7 cells. This is important in order to minimize the nonspecific effects on mRNA levels due to reduction in cell viability.

[3] = test system: c-Met mRNA in A549 cells; assay: qRT-PCR of c-Met mRNA in A549 cells; format: cell-based; conditions: 300 μM DFO
Description: FIG. 13 mRNA levels of three HIF1α inducible genes: VEGF, c-Met and Glut1 in A549 cells after treatment with LS72. Data from qRT-PCR experiments showing mRNA levels of three HIF1α inducible genes, VEGF, c-Met and Glut1 in A549 after treatment of the cells in a medium with 0.2% serum with LS72 (400 nM). Hypoxia was induced 300 μM by DFO. Error bars are ±s.e.m for the experiments performed in […]. Error bars are ±s.e.m. of experiments performed in triplicate. ***P<0.001, ** P<0.01, t test.
FIG. 16 mRNA levels for c-Met in A549 cell line showing dose response to LS72 at concentrations of 100 nM, 400 nM, 1600 nM. qRT-PCR was used to determine the mRNA levels of c-Met Hypoxia was induced with DFO (300 μM). Error bars are ±sem for the experiments performed in triplicate. Error bars are ±s.e.m. of experiments performed in triplicate. *** P<0.001, **P<0.01, # P<0.1, t test.
After tests with various serum levels in the media and hypoxia induction methods, the conditions that worked remarkably and consistently well for the induction of HIF1α dependent genes were to keep A549 cells in 2% serum followed by treating cells with compound or control in the media with 0.2% serum for 48 h (FIG. 13). […]

[4] = test system: global transcript levels (28,869 transcripts) in MCF7 cells; assay: Gene expression profiling with Affymetrix Human Gene ST 1.0 Arrays; format: cell-based
Excerpt: Since the target proteins p300 and CBP are pleiotropic multidomain coactivators, their CH1 regions contain binding sites for multiple transcription factors. One potential concern of the use of ETPs for gene regulation is specificity, because inhibiting the interaction between CBP/p300 and transcription factors other than HIF1α may result in large numbers of affected genes. To rule out nonspecific genome-wide effects of ETPs, we conducted in vitro gene expression profiling experiments with LS72 using Affymetrix Human Gene ST 1.0 Arrays containing oligonucleotide sequences representing 28,869 transcripts.^67,68
In order to interrogate cellular genome for global effects, MCF7 cells treated with LS72 at 400 nM were used. Treatment of cells with LS72 at a concentration of 400 nM affected the expression of only 178 genes at ≧2.0 fold levels (FIG. 20). By comparison, treatment with DFO alone changed levels of 329 genes ≧2.0 fold. […] In cells treated with LS72 under DFO-induced hypoxia conditions, we identified 190 genes were affected by this compound. Clustering analysis was performed to identify similarities in the expression profiles between different treatments (FIG. 19).

[5] = MCF7, hypoxic induction with DFO (300 μM), LS72 400 nM

For CN1C(=O)[C@]2(Cc3ccc(CCc4ccc(C[C@@]56SS[C@@](CO)(C(=O)N5C)N(C)C6=O)cc4)cc3)SS[C@@]1(CO)C(=O)N2C (racemic) [LS72, 4,4′-((ethane-1,2-diylbis(4,1-phenylene))bis(methylene))bis(1-(hydroxymethyl)-5,7-dimethyl-2,3-dithia-5,7-diazabicyclo[2.2.2]octane-6,8-dione)], the “effect on VEGF mRNA level (in words)” value [1] was “downregulated VEGF”, the EC50 at 24 h [2] was 547 nM and the “c-Met transcriptional upregulation, dose response” value ([3]; A549 85% confluent, 100 nM, 400 nM, 1600 nM) was “Dose-dependent decrease”. The “c-Met mRNA level (in words)” value ([3]; A549, LS72 400 nM, 0.2% serum, 48 h) was “significantly downregulated, essentially reaching its normoxic levels”, the “number of genes downregulated ≧2.0 fold” value ([4]; MCF7, LS72 400 nM) was 88 genes and the “number of genes upregulated by ≧2.0 fold” value ([4]; MCF7, LS72 400 nM) was 90 genes. The “number of genes with expression affected at ≧2.0 fold levels” value ([4]; MCF7, LS72 400 nM) was 178 genes, the “number of genes affected under DFO-induced hypoxia” value ([4]; MCF7, LS72 under DFO-induced hypoxia conditions) was 190 genes and the “CAV1 (Entrez 857) expression change, microarray” value [4, 5] was −1.3. For the same compound, the “LOXL2 (Entrez 4017) expression change, microarray” value [4, 5] was −1.4, the “MET (Entrez 4233) expression change, microarray” value [4, 5] was −2.2 and the “SLC5A6 (Entrez 8884) expression change, microarray” value [4, 5] was −2.4. The “SLC5A8 (Entrez 160728) expression change, microarray” value [4, 5] was −1.4, the “SLC7A2 (Entrez 6542) expression change, microarray” value [4, 5] was −2.5 and the “SLC9A2 (Entrez 6549) expression change, microarray” value [4, 5] was −1.8. For the same compound, the “SLC9A3R1 (Entrez 9368) expression change, microarray” value [4, 5] was −1.6, the “SLC25A12 (Entrez 8604) expression change, microarray” value [4, 5] was −1.8 and the “SLC25A15 (Entrez 10166) expression change, microarray” value [4, 5] was −1.5. The “SLC26A2 (Entrez 1836) expression change, microarray” value [4, 5] was −1.4, the “SLC27A4 (Entrez 10999) expression change, microarray” value [4, 5] was −1.4 and the “SLC35A1 (Entrez 10559) expression change, microarray” value [4, 5] was −2.2. The “SLC35D1 (Entrez 23169) expression change, microarray” value [4, 5] was −3.1, the “SLC38A9 (Entrez 153129) expression change, microarray” value [4, 5] was −1.5 and the “SLC39A11 (Entrez 201266) expression change, microarray” value [4, 5] was −1.9. For the same compound, the “TFRC (Entrez 7037) expression change, microarray” value [4, 5] was −1.5 and the “TGFB3 (Entrez 7043) expression change, microarray” value [4, 5] was −1.5.

— patent US9416145B2, “Compositions and methods for inhibiting activity of hypoxia-inducible transcription factor complex and its use for treatment of tumors” (priority 2012, dated 2016)
